This is an account of results in PubChem BioAssay AID434955 (Southern Research Specialized Biocontainment Screening …, 2010).

For the assay, the system named is M. tuberculosis H37Rv growth with meropenem, percent inhibition. The assay is described as follows: beta-lactam sensitization of Mtb H37Rv, H37Rv (AID 434955).
As usually defined, the IC90 is the point of the concentration-response curve where the effect stands at 90%. Take `O=C1c2ccccc2N2C(=O)c3ccccc3C2N1O` (stereo unspecified): the 90% effect concentration (IC90) was 56.4 µM. The figure for `Cc1ccc(C2=NN3C(=O)c4ccccc4C3C2)cc1` (stereo unspecified) is 35.1 µM. Turning to `CCCCN=C1CC(C)(C)CC(=O)/C1=C(/O)CCC`, the IC90 is 28.7 µM. For the compound `Cc1ccc(-c2[nH][nH]c(=O)c(=O)c2N=Nc2ccccc2)cc1`, the 90% effect concentration (IC90) was 86.2 µM. With `Cc1ccccc1CSc1nnc(C)c(=O)n1N`, the concentration for an effect of 90% (IC90) was 32.3 µM. Take `CCOC(=O)COc1ccc2nsnc2c1`: the IC90 was 26 µM. Turning to `CC/C(=N\NC(=O)c1ccc(-c2ccccc2)cc1)C12CC3CC(CC(C3)C1)C2`, the IC90 was 43.7 µM. Turning to `CN1C/C(=N\S(=O)(=O)c2ccccc2)N(C)C1=O`, the IC90 was 33.7 µM. Regarding `CC1CCCN(C(=O)C2CCN(c3ncnc4c3nc3n4CCCCC3)CC2)C1` (stereo unspecified), the concentration for an effect of 90% (IC90) is 49.7 µM. For the compound `Cc1cccc(CSc2nnc(C)c(=O)n2N)c1`, the concentration for an effect of 90% (IC90) is 9.9 µM. The figure for `Cn1c(SCC(=O)OC2CCCCC2)nnc1-c1ccc2c(c1)OCO2` is 34.9 µM; for `COC(=O)C1=C(C)NC(=O)/C1=C\c1cc(C)n(-c2c(C)cccc2C)c1C` it is 99.8 µM; for `CCCc1cc(NC(=O)COC(=O)c2nccnc2N)n(-c2ccccc2)n1` it is 50.8 µM. Consider `CCCCCn1c(=O)c(C(=O)Nc2cnccn2)c(O)c2ccccc21`, for which the IC90 is 13.8 µM. On to `O=c1oc(-c2ccco2)nc2sc3c(c12)CCCCC3`, for which the IC90 is 38.5 µM. Under `c1ccc(-c2cc(N3CCOCC3)nc3ccccc23)cc1` stands 91.5 µM; under `C/C(=N/NC(=O)c1ccccn1)c1ccncc1`, 23.1 µM.

Take `Cc1cccc2c(C(=O)n3cccn3)cc(-c3ccccc3Cl)nc12`: the 90% effect concentration (IC90) was 26.8 µM.

Regarding `Nc1ncnc2c1c(-c1ccc(Oc3ccccc3)cc1)cn2C1CCCC1`, the IC90 is 60.3 µM. Take `O=C(Cn1cnc2sc3c(c2c1=O)CCCC3)NCC(=O)Nc1ccccc1F`: the IC90 was 95.5 µM.

`O=C(N/N=C/c1ccc([N+](=O)[O-])o1)c1ccccc1-n1cccc1`: the IC90 was 29.4 µM. As to `CCN(CC)S(=O)(=O)c1ccc(N/N=C(\C)c2ccc(OC)cc2O)nc1`, the IC90 is 10.4 µM. In the case of `CC(C)(C)NCCCOc1ccc(Cl)cc1C(C)(C)C`, the 90% effect concentration (IC90) is 26.9 µM. For `C=CCNC1=C(Cl)C(=O)N(c2cccc(Cl)c2Cl)C1=O`, the IC90 is 30.2 µM. In the case of `Cc1ccc(SCCNC(=O)c2ccc(C)c([N+](=O)[O-])c2)cc1`, the IC90 is 54 µM. As for `COc1cccc(/C=N/NC(=O)c2cnccn2)c1O`, the 90% effect concentration (IC90) was 13.9 µM. On to `Cc1[nH]n(-c2ccccc2)c(=O)c1/C=N/NC(=O)c1cccc([N+](=O)[O-])c1`, for which the 90% effect concentration (IC90) is 70.7 µM.

With `CSc1ccc(/C=C/C(=O)NC23CC4CC(CC(C4)C2)C3)cc1`, the IC90 was 16.1 µM. Under `O=C(O)CCN1C(=O)/C(=C/c2ccc(-c3nc4ccccc4s3)o2)SC1=S` stands 78.4 µM. Take `Cc1cccc(OCc2nc(-c3ccccn3)n[nH]2)c1`: the IC90 was 7.37 µM. The figure for `COc1cc(C(=O)N/N=C/c2ccc(OC(=O)c3cccc(C)c3)cc2)ccc1O` is 53.4 µM; for `O=C(CN1C(=O)c2cccc([N+](=O)[O-])c2C1=O)N1CCN(c2ccc(F)cc2)CC1` it is 74.5 µM; for `O=C(N[C@@H](Cc1ccccc1)C(=O)CCl)OCc1ccccc1` it is 46.9 µM.

As to `CCCOc1ccccc1NC(=O)/C=C/C(N)=O`, the IC90 was 27.7 µM. Take `CCOC(=O)c1c(C)n(-c2ccccc2)c2ccc(OCCN(C)C)cc12`: the 90% effect concentration (IC90) is 21.7 µM. As to `CCC(=O)N1CCN(c2ccc(NC(=S)NC(=O)c3ccc(OC)c([N+](=O)[O-])c3)cc2)CC1`, the concentration for an effect of 90% (IC90) is 67.8 µM. In the case of `O=C(NCCC1=CCCCC1)c1ccc(Cl)c([N+](=O)[O-])c1`, the IC90 is 30.2 µM. As for `C/C(=N\OCC(=O)Nc1nc2ccccc2s1)c1ccccc1`, the IC90 is 35.6 µM. Turning to `OCCCc1cn(-c2ccccc2)c2ccccc12`, the 90% effect concentration (IC90) is 60.8 µM. Under `O=C(NCc1nc2ncc(Br)cc2[nH]1)c1ccccc1` stands 54.9 µM; under `CCCOc1ccc(C(=O)CCN2CCCCC2)cc1`, 36.4 µM; under `CC(C)(C)c1ccc(OCc2ccc(C(=O)N/N=C3\CC4CC=CC34)cc2)cc1` (stereo unspecified), 45.3 µM. For `O=C(CCSc1ccc(Cl)c(Cl)c1)NC12CC3CC(CC(C3)C1)C2`, the IC90 was 12.3 µM. Turning to `Cc1ccc(C)c(N2CCN(CC3CCCCC3)CC2)c1`, the concentration for an effect of 90% (IC90) is 52.4 µM. Regarding `NNC(=O)c1cccc(O)c1`, the IC90 is 73.9 µM. With `CCOC(=O)CNC(=O)/C(=C\c1ccc(F)cc1)NC(=O)c1ccccc1`, the IC90 is 35.1 µM.

On to `CN1c2ccccc2C(=O)NC1c1ccc([N+](=O)[O-])s1` (stereo unspecified), for which the concentration for an effect of 90% (IC90) was 33.3 µM. `COCCCn1c(=O)/c(=C\c2cccc(OC)c2OC)s/c1=C(/C#N)C(=O)Nc1ccc(C(=O)O)cc1`: the IC90 was 24.6 µM.

With `Cn1c(=O)c2ccccc2n2c(CCl)nnc12`, the concentration for an effect of 90% (IC90) was 4.65 µM. Regarding `COc1cc(C(=O)Nc2cccc(-c3cn4cccnc4n3)c2)cc(OC)c1OC`, the IC90 was 30.2 µM. For the compound `O=C1COc2ccc(C(=O)CCl)cc2N1`, the 90% effect concentration (IC90) was 44.4 µM. `Cc1onc(-c2ccccc2)c1C(=O)Nc1ccc(-c2nnc3n2CCCCC3)cc1`: the IC90 is 38.6 µM. Consider `COc1cccc(/C=C/c2[nH]c(=O)[nH]c(=O)c2[N+](=O)[O-])c1O`, for which the concentration for an effect of 90% (IC90) was 15.9 µM. Turning to `O=C(NN1C(=O)c2cc(Br)ccc2NC1c1ccccc1Cl)c1ccncc1` (stereo unspecified), the 90% effect concentration (IC90) is 13.7 µM.

With `O=c1c2c3n(c(=S)nc2[nH]n1-c1ccccc1)CCCCC3`, the IC90 is 13.3 µM.

For the compound `CCOc1ccc(N=c2cc(-c3ccc(OC)cc3)oc3ccccc23)cc1`, the 90% effect concentration (IC90) is 50.3 µM. In the case of `Cc1c(OCc2ccc(C(=O)O)cc2)ccc2c(-c3ccccc3)cc(=O)oc12`, the IC90 was 2.09 µM. For the compound `O=C(N/N=C/c1c(O)n(Cc2ccc(F)cc2)c(=S)[nH]c1=O)c1ccncc1`, the concentration for an effect of 90% (IC90) was 9.8 µM. Take `c1ccc(-c2n[nH]c3c2CCC3)cc1`: the 90% effect concentration (IC90) is 46.3 µM.

Consider `CCCCNC(=O)c1onc(CSc2ccc(F)c(F)c2)c1C(=O)O`, for which the concentration for an effect of 90% (IC90) is 56.8 µM. Under `COc1ccc(/C=C/C(=O)N(C(C)C)C(C)C)cc1Br` stands 96.4 µM; under `Nc1ccc(C(=O)O)c(O)c1`, 1.88 µM; under `COc1ccc(N2C(=O)NC(=O)/C(=C\c3ccc([N+](=O)[O-])s3)C2=O)cc1`, 21.3 µM. As for `CCOC(=O)c1c(C)[nH]c(C)c1C(=O)COC(=O)/C=C/c1ccc(OC(F)F)cc1`, the IC90 was 91.4 µM.

Take `Cc1c(C=O)c(C=O)c(C)n1Cc1ccccc1`: the IC90 was 69.3 µM. Consider `COc1cc2nc(N3CCN(C(=O)OCc4ccccc4)[C@H](C(=O)NC(C)(C)C)C3)nc(N)c2cc1OC`, for which the IC90 was 84 µM.

For the compound `O=C(CSC1CS(=O)(=O)c2cc([N+](=O)[O-])ccc21)NNC(=O)c1ccccc1` (stereo unspecified), the IC90 is 13.3 µM. Take `Cc1nnc(SCc2cccc(Cl)c2)n(N)c1=O`: the 90% effect concentration (IC90) is 10.1 µM. With `O=C(Cc1cccc2ccccc12)N/N=C/c1ccc(O)c([N+](=O)[O-])c1`, the concentration for an effect of 90% (IC90) was 31.6 µM. For `O=C(COC(=O)c1ccc(Cl)cc1[N+](=O)[O-])NNC(=O)c1cccs1`, the IC90 is 51.1 µM. Turning to `CCC(C(=O)NC1C(=O)N2C(C(=O)O)=C(CSc3nnc(C)s3)CSC12)c1ccccc1` (stereo unspecified), the 90% effect concentration (IC90) is 1.57 µM. Under `Cc1ccc(C)c(SCc2noc(C(=O)NCC3CCCO3)c2C(=O)O)c1` (stereo unspecified) stands 48 µM. Under `COc1ccc(OC)c(NC(=O)CS(=O)(=O)c2ccccc2)c1` stands 14.3 µM; under `Cc1cc(=O)[nH]c(N/N=C/c2c(O)n(-c3ccccc3)c(=O)c3ccccc23)n1`, 13.6 µM; under `COCc1cc(=O)n2[nH]cc(-c3ccccc3)c2n1`, 15.5 µM.

For the compound `O=c1oc(-c2ccccc2F)nc2scc(-c3ccccc3)c12`, the concentration for an effect of 90% (IC90) is 3.05 µM.

Turning to `O=[N+]([O-])c1cc(C(F)(F)F)ccc1NCCc1c[nH]c2ccc(O)cc12`, the 90% effect concentration (IC90) was 72.9 µM. For `Cc1c(C(=O)NCCC2=CCCCC2)sc2ncnc(N3CCCCC3C)c12` (stereo unspecified), the 90% effect concentration (IC90) is 52 µM. The figure for `CCOC(=O)N1CCN(C(=O)CSc2nnc(COc3ccccc3)o2)CC1` is 18.4 µM. In the case of `COc1cc(NC(=O)c2ccccc2)c(OC)cc1NC(=O)CN1CCOCC1`, the IC90 was 69.2 µM. Turning to `CCN(CC)C(=O)CSc1nnc2nnc3cc(OC)ccc3n12`, the IC90 is 13.4 µM.

For the compound `CCNc1nc(CN2CCCCC2)nc2scc(-c3ccccc3)c12`, the 90% effect concentration (IC90) is 57.3 µM.

`CO/N=C(\C(=O)N[C@@H]1C(=O)N2C(C(=O)O)=C(COC(C)=O)CS[C@H]12)c1csc(N)n1` (stereo in doubt): the IC90 is 41.7 µM. Under `CC1CCc2c(sc(NC(=O)CCCn3cnc([N+](=O)[O-])n3)c2C(N)=O)C1` (stereo unspecified) stands 90.4 µM. For `CC(C)C[C@H](NC(=O)c1nc[nH]c1C(=O)N1CCN(C(=O)OC(C)(C)C)CC1)C(=O)OCc1ccccc1`, the IC90 is 54.9 µM. Take `Cc1ccc(C)c(CSc2nnc(C)c(=O)n2N)c1`: the IC90 is 20.4 µM.

For the compound `Cc1ccc(C(C)C)c(OCc2ccc(C(=O)N/N=C/c3ccc(C(=O)O)cc3)cc2)c1`, the IC90 is 49.5 µM. With `CCCc1cc(C(=O)Nc2ccc(C(C)=O)cc2)no1`, the IC90 is 48.8 µM. With `O=C(/C=C/c1ccccn1)c1cc(Br)ccc1O`, the 90% effect concentration (IC90) is 45.1 µM. Take `CCOC(=O)c1cnc2cc(-c3ccc(C(C)(C)C)cc3)nn2c1N`: the concentration for an effect of 90% (IC90) is 5.74 µM.

`CN(C(=O)Nc1ccc(Cl)cc1)n1cnc2ccccc2c1=O`: the IC90 is 48.6 µM. Under `O=C1/C(=C/c2ccncc2)CCc2ccccc21` stands 29.1 µM; under `COc1ccc(-n2cc(-c3ccccc3)c3c(NN4CCOCC4)ncnc32)cc1`, 36.1 µM.

For `CCOC(=O)CSc1nnc(CNC(=O)c2cccs2)n1CCc1ccccc1`, the IC90 was 49.5 µM.

Regarding `CCCCNC(=O)c1onc(CSc2ccc(OC)cc2)c1C(=O)O`, the IC90 was 27.2 µM. For `Cc1cc(C)c(-c2c(O)c3ccccc3n(C)c2=O)c(C)c1`, the IC90 was 42.2 µM.

As for `CC(=O)Nc1cccc(/C(C)=N/NC(N)=S)c1`, the IC90 was 28.6 µM. As for `COc1ccc(NC(C)C(=O)N/N=C/c2ccc([N+](=O)[O-])s2)cc1` (stereo unspecified), the IC90 is 4.79 µM. As for `C/C(=N\NC(=S)Nc1ccccc1C)c1ccc(O)cc1`, the 90% effect concentration (IC90) was 7.97 µM. The figure for `Cc1cc(=O)[nH]c(N/N=C/c2c(F)c(F)c(F)c(F)c2F)n1` is 82.3 µM. Consider `Cc1ccc(C)c(N2CCN(CC3CC=CCC3)CC2)c1` (stereo unspecified), for which the IC90 is 60.7 µM.
